Reference: ChEMBL document CHEMBL1177772, “Design and synthesis of benzoazepin-2-one analogs as allosteric binders targeting the PIF pocket of PDK1” (Bioorg Med Chem Lett, 2010)
Residues, ends and D or L forms follow the SMILES beside them.

Target: T1, 3-phosphoinositide-dependent protein kinase 1 (Homo sapiens, UniProt O15530)
T1 sequence (O15530 whole entry): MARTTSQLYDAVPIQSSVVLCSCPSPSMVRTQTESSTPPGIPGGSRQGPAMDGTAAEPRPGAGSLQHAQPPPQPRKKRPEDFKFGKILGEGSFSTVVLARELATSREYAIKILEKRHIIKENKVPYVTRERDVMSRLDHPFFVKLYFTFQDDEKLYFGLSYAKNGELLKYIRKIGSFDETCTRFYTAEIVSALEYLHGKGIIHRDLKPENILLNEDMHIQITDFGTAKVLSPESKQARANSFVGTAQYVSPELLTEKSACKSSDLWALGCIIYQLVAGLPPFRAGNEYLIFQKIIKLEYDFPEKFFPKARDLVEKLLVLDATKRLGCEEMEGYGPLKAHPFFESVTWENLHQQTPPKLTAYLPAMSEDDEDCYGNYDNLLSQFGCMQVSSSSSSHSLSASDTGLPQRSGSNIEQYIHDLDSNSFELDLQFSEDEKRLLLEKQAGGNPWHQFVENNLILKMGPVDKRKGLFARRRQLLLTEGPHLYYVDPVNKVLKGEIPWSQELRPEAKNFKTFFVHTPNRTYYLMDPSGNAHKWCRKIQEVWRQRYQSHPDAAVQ
Experiment: Displacement of PIFtide from His-tagged PDK1 by HTRF assay; call rule not given here

For `O=C(O)CN1C(=O)N(Cc2ccccc2)CCc2ccccc21`, the EC50 was “Not Active”.
For `COC(=O)CN1C(=O)C(Oc2ccccc2)CCc2ccccc21` (stereo unspecified), the EC50 was “Not Active”.
Molecule `O=C(O)CN1C(=O)C(Sc2ccccc2)CCc2ccccc21` (stereo unspecified) has an EC50 (read-out: EC50) of 101 µM.
With `COC(=O)CN1C(=O)C(NC(=O)c2ccccc2)CCc2ccccc21` (stereo unspecified) the EC50 was “Not Active”.
With `O=C(O)CN1C(=O)C(Sc2ccc(Cl)cc2)CCc2ccccc21` (stereo unspecified) the EC50 (read-out: EC50) was 23 µM.
For `O=C(O)CN1C(=O)C(NS(=O)(=O)c2ccccc2)CCc2ccccc21` (stereo unspecified), the EC50 was “Not Active”.
In the case of `COC(=O)CN1C(=O)C(NS(=O)(=O)c2ccccc2)CCc2ccccc21` (stereo unspecified), the EC50 is reported as “Not Active”.
For `COC(=O)CN1C(=O)C(OC(=O)c2ccccc2)CCc2ccccc21` (stereo unspecified), the EC50 was “Not Active”.
`CC[C@H](C)[C@H](NC(=O)[C@H](Cc1ccc(O)cc1)NC(=O)[C@H](CC(=O)O)NC(=O)[C@H](Cc1ccccc1)NC(=O)[C@H](CC(=O)O)NC(=O)[C@H](CCCNC(=N)N)NC(=O)[C@H](Cc1ccccc1)NC(=O)[C@H](CCSC)NC(=O)[C@H](CCC(=O)O)NC(=O)[C@@H](N)CCC(N)=O)C(=O)N[C@@H](C)C(=O)N[C@@H](CC(=O)O)C(=O)N[C@@H](Cc1c[nH]c2ccccc12)C(=O)O` (H-QEMFRDFDYIADW-OH) showed an EC50 (read-out: EC50) of 10 µM.
`COc1ccc(SC2CCc3ccccc3N(CC(=O)O)C2=O)cc1` (stereo unspecified) gave an EC50 (read-out: EC50) of 53 µM.
Work on `O=C(O)CSC(CC(=O)c1ccc(Cl)cc1)c1ccccc1` (stereo unspecified) yielded an EC50 (read-out: EC50) of 133 µM.
`O=C(O)CN1C(=O)C(Sc2ccc(C(=O)O)cc2)CCc2ccccc21` (stereo unspecified) showed an EC50 (read-out: EC50) of 187 µM.
For `O=C(O)CN1C(=O)C(NC(=O)c2ccccc2)CCc2ccccc21` (stereo unspecified), the EC50 was “Not Active”.
With `O=C(O)CN1C(=O)C(Oc2ccccc2)CCc2ccccc21` (stereo unspecified) the EC50 was “Not Active”.
`O=C(O)CN1C(=O)C(Sc2ccc(Cl)cc2Cl)CCc2ccccc21` (stereo unspecified) gave an EC50 (read-out: EC50) of 75 µM.
With `COC(=O)CN1C(=O)C(Nc2ccccc2)CCc2ccccc21` (stereo unspecified) the EC50 was “Not Active”.
With `O=C(O)CN1C(=O)C(Sc2c(Cl)cccc2Cl)CCc2ccccc21` (stereo unspecified) the EC50 (read-out: EC50) was 45 µM.
With `O=C(O)CN1C(=O)C(OC(=O)c2ccccc2)CCc2ccccc21` (stereo unspecified) the EC50 was “Not Active”.
In the case of `COC(=O)CN1C(=O)C(Sc2ccccc2)CCc2ccccc21` (stereo unspecified), the EC50 is reported as “Not Active”.
For `O=C(O)CN1C(=O)C(Nc2ccccc2)CCc2ccccc21` (stereo unspecified), the EC50 (read-out: EC50) was 900 µM.
`COC(=O)CN1C(=O)N(Cc2ccccc2)CCc2ccccc21` was tested, and the EC50 was “Not Active”.
